Data on 50 compounds can be found in article PMC11995724, “Antibiotic target discovery by integrated phenotypic and activity-based profiling of electrophilic fragments” (Cell chemical biology, 2025).

Structures are written as SMILES.

The nature of this series: in vitro. As to conditions: human, hek293t cells.
Consider `C=CC(=O)NC1(c2ccccc2)CCCC1` [1-O15, N-(1-phenylcyclopentyl)prop-2-enamide], for which the viability – broadly, a read-out of living cells in per cent, often relative to untreated cells – at 48 h, 25 µM turned out to be 95.6%. Turning to `C=CC(=O)NCC1CCS(=O)(=O)C1(C)C` (centres unmarked) [1-O16, N-[(2,2-dimethyl-1,1-dioxo-1lambda6-thiolan-3-yl)methyl]prop-2-enamide], the viability at 48 h, 25 µM was 103%. In the case of `C=CC(=O)N(Cc1ccccc1)C1CCOc2ccc(OC)cc21` (centres unmarked) [1-O17, N-benzyl-N-(6-methoxy-3,4-dihydro-2H-1-benzopyran-4-yl)prop-2-enamide] it was 71.6%; in that of `C=CC(=O)NCc1ccnn1CC(F)(F)F` [1-O18, N-{[1-(2,2,2-trifluoroethyl)-1H-pyrazol-5-yl]methyl}prop-2-enamide], 168%. `C=CC(=O)NC[C@@H]1C[C@H]1C1CCCCC1` [1-O19, N-{[(1R,2S)-2-cyclohexylcyclopropyl]methyl}prop-2-enamide]: the viability at 48 h, 25 µM worked out at 106%.

Regarding `C=CC(=O)Nc1ccc(C(F)C(F)(F)F)cc1` (centres unmarked) [1-O20, N-[4-(1,2,2,2-tetrafluoroethyl)phenyl]prop-2-enamide], the viability at 48 h, 25 µM was determined as 85.4%.

As to `C=CC(=O)N1CCC(c2nc(C(=O)O)cs2)CC1` [1-O21, 2-[1-(prop-2-enoyl)piperidin-4-yl]-1,3-thiazole-4-carboxylic acid], the viability at 48 h, 25 µM turned out to be 96.9%. As to `C=CC(=O)NC(C1CCC1)C1CCOC1` (centres unmarked) [1-O22, N-[cyclobutyl(oxolan-3-yl)methyl]prop-2-enamide], the viability at 48 h, 25 µM turned out to be 113%.

Take `C=CC(=O)N1CCc2cc(C(N)=O)ccc21` [1-P03, 1-(prop-2-enoyl)-2,3-dihydro-1H-indole-5-carboxamide]: the viability at 48 h, 25 µM worked out at 172%. Consider `C=CC(=O)N(Cc1ccccc1)Cc1ccccc1` [1-P04, N,N-dibenzylprop-2-enamide], for which the viability at 48 h, 25 µM was 60.4%. As to `C=CC(=O)NC1CCC(c2nc(-c3ccccc3)n[nH]2)CC1` (centres unmarked) [1-P05, N-[4-(3-phenyl-1H-1,2,4-triazol-5-yl)cyclohexyl]prop-2-enamide], the viability at 48 h, 25 µM was found to be 104%.

As to `C=CC(=O)Nc1ccc(C(N)=O)cc1C` [1-P06, 3-methyl-4-(prop-2-enamido)benzamide], the viability at 48 h, 25 µM amounted to 84.8%. The result for `C=CC(=O)N[C@H]1CCCC[C@H]1n1cc(C(C)(C)O)nn1` [1-P07, N-[(1S,2R)-2-[4-(2-hydroxypropan-2-yl)-1H-1,2,3-triazol-1-yl]cyclohexyl]prop-2-enamide] reads 128%; that for `C=CC(=O)NCC1(OC)CCC(C)CC1` (centres unmarked) [1-P08, N-[(1-methoxy-4-methylcyclohexyl)methyl]prop-2-enamide], 80.5%. The result for `C=CC(=O)N(Cc1cn(C)nc1-c1ccc(F)cc1)C1CC(C)C1` (centres unmarked) [1-P09, N-{[3-(4-fluorophenyl)-1-methyl-1H-pyrazol-4-yl]methyl}-N-(3-methylcyclobutyl)prop-2-enamide] reads 64.1%; that for `C=CC(=O)NCC(C)c1ncc(C)s1` (centres unmarked) [1-P10, N-[2-(5-methyl-1,3-thiazol-2-yl)propyl]prop-2-enamide], 43.9%. For the compound `C=CC(=O)N1CCN(C(=O)c2ccco2)CC1` [1-P11, 1-[4-(furan-2-carbonyl)piperazin-1-yl]prop-2-en-1-one], the viability at 48 h, 25 µM was 88.3%.

As to `C=CC(=O)Nc1onc(C2CCCCC2)c1CC(C)C` [1-P12, N-[3-cyclohexyl-4-(2-methylpropyl)-1,2-oxazol-5-yl]prop-2-enamide], the viability at 48 h, 25 µM is 0.308%.

For the compound `C=CC(=O)N(Cc1cn(C)nc1C)c1ccc2c(c1)OCCO2` [1-P13, N-(2,3-dihydro-1,4-benzodioxin-6-yl)-N-[(1,3-dimethyl-1H-pyrazol-4-yl)methyl]prop-2-enamide], the viability at 48 h, 25 µM stood at 81.5%. Turning to `C=CC(=O)Nc1ncc(-c2cccc(C)c2)s1` [1-P14, N-[5-(3-methylphenyl)-1,3-thiazol-2-yl]prop-2-enamide], the viability at 48 h, 25 µM came to 63.6%. The result for `C=CC(=O)N(Cc1cc(C)c2ncccc2c1)C(C)C1CCCO1` (centres unmarked) [1-P15, N-[(8-methylquinolin-6-yl)methyl]-N-[1-(oxolan-2-yl)ethyl]prop-2-enamide] reads 93.5%; that for `C=CC(=O)N1CCn2nccc21` [1-P16, 1-{1H,2H,3H-pyrazolo[1,5-a]imidazol-1-yl}prop-2-en-1-one], 56.6%; that for `C=CC(=O)N1CSCC1C(=O)NCC1CC1` (centres unmarked) [1-P17, N-(cyclopropylmethyl)-3-(prop-2-enoyl)-1,3-thiazolidine-4-carboxamide], 105%. `C=CC(=O)N1CC(OCc2nc(C)no2)C1` [1-P18, 1-{3-[(3-methyl-1,2,4-oxadiazol-5-yl)methoxy]azetidin-1-yl}prop-2-en-1-one]: the viability at 48 h, 25 µM is 67.7%. As to `C=CC(=O)NCc1ccc(N2CCCC(C(N)=O)C2)cc1` (centres unmarked) [1-P19, 1-{4-[(prop-2-enamido)methyl]phenyl}piperidine-3-carboxamide], the viability at 48 h, 25 µM was 126%. The result for `C=CC(=O)N1CCOC(c2ccccc2Cl)C1` (centres unmarked) [1-P20, 1-[2-(2-chlorophenyl)morpholin-4-yl]prop-2-en-1-one] reads 72.7%; that for `C=CC(=O)NCCC1=CCCCCC1` [1-P21, N-[2-(cyclohept-1-en-1-yl)ethyl]prop-2-enamide], 93.5%; that for `C=CC(=O)N1CCCC(C2CCN(C(=O)c3cc(C)nn3C)CC2)C1` (centres unmarked) [1-P22, 1-[1'-(1,3-dimethyl-1H-pyrazole-5-carbonyl)-[3,4'-bipiperidin]-1-yl]prop-2-en-1-one], 55.9%. In the case of `C=CC(=O)NCCn1nnnc1C` [2-A03, N-[2-(5-methyl-1H-1,2,3,4-tetrazol-1-yl)ethyl]prop-2-enamide] it was 110%; in that of `C=CC(=O)Nc1ccnc(OC2CCCCC2)c1` [2-A04, N-[2-(cyclohexyloxy)pyridin-4-yl]prop-2-enamide], 0.76%; in that of `C=CC(=O)NC(C)c1cnc(C(F)(F)F)s1` (centres unmarked) [2-A05, N-{1-[2-(trifluoromethyl)-1,3-thiazol-5-yl]ethyl}prop-2-enamide], 73.5%. In the case of `C=CC(=O)N1CCC(Cc2nc(C3CCC3)no2)CC1` [2-A06, 1-{4-[(3-cyclobutyl-1,2,4-oxadiazol-5-yl)methyl]piperidin-1-yl}prop-2-en-1-one] it was 93%; in that of `C=CC(=O)N(Cc1c2c(nn1C)CCOC2)c1cc(C)cc(C)c1` [2-A07, N-(3,5-dimethylphenyl)-N-({2-methyl-2H,4H,6H,7H-pyrano[4,3-c]pyrazol-3-yl}methyl)prop-2-enamide], 57.4%; in that of `C=CC(=O)N1CCC(C(=O)Nc2ncc(CCO)s2)CC1` [2-A08, N-[5-(2-hydroxyethyl)-1,3-thiazol-2-yl]-1-(prop-2-enoyl)piperidine-4-carboxamide], 79.1%.

As for `C=CC(=O)NCCN(C)S(=O)(=O)c1cccs1` [2-A09, N-[2-(N-methylthiophene-2-sulfonamido)ethyl]prop-2-enamide], the viability at 48 h, 25 µM came out at 129%. The result for `C=CC(=O)NC(c1ccc(C)cc1)C(C)S(C)(=O)=O` (centres unmarked) [2-A10, N-[2-methanesulfonyl-1-(4-methylphenyl)propyl]prop-2-enamide] reads 100%. Take `C=CC(=O)NCC1(c2nc(-c3ccccc3)cs2)CCOCC1` [2-A11, N-{[4-(4-phenyl-1,3-thiazol-2-yl)oxan-4-yl]methyl}prop-2-enamide]: the viability at 48 h, 25 µM was determined as 93.1%. In the case of `C=CC(=O)NCc1ccc(C(=O)N2CCC(NC(C)=O)CC2)cc1` [2-A12, N-{[4-(4-acetamidopiperidine-1-carbonyl)phenyl]methyl}prop-2-enamide] it was 90.5%; in that of `C=CC(=O)N(Cc1c(F)cc(C)cc1Cl)C1CCCOCC1` (centres unmarked) [2-A13, N-[(2-chloro-6-fluoro-4-methylphenyl)methyl]-N-(oxepan-4-yl)prop-2-enamide], 99%; in that of `C=CC(=O)NCCc1ccc(S(C)(=O)=O)cc1` [2-A14, N-[2-(4-methanesulfonylphenyl)ethyl]prop-2-enamide], 93.7%. The result for `C=CC(=O)N1CC[C@H](Oc2ccc(F)cc2)C1` [2-A15, 1-[(3S)-3-(4-fluorophenoxy)pyrrolidin-1-yl]prop-2-en-1-one] reads 185%. In the case of `C=CC(=O)N1CC(S(=O)(=O)N2CCOCC2)C1` [2-A16, 1-[3-(morpholine-4-sulfonyl)azetidin-1-yl]prop-2-en-1-one] it was 74%; in that of `C=CC(=O)Nc1cc(C)n(CC(C)c2nnc3n2CCCCC3)n1` (centres unmarked) [2-A17, N-[5-methyl-1-(2-{5H,6H,7H,8H,9H-[1,2,4]triazolo[4,3-a]azepin-3-yl}propyl)-1H-pyrazol-3-yl]prop-2-enamide], 175%. With `C=CC(=O)NC1CC2CCC(C1)N2S(C)(=O)=O` (centres unmarked) [2-A18, N-{8-methanesulfonyl-8-azabicyclo[3.2.1]octan-3-yl}prop-2-enamide], the viability at 48 h, 25 µM came out at 93.8%. `C=CC(=O)NCc1nc(C2CC2)cs1` [2-A19, N-[(4-cyclopropyl-1,3-thiazol-2-yl)methyl]prop-2-enamide]: the viability at 48 h, 25 µM turned out to be 103%.

`C=CC(=O)N1CCC(n2ccc(C)n2)CC1` [2-A21, 1-[4-(3-methyl-1H-pyrazol-1-yl)piperidin-1-yl]prop-2-en-1-one]: the viability at 48 h, 25 µM is 139%. The result for `C=CC(=O)N(c1cc(C)ccc1C#N)C(C)C` [2-A22, N-(2-cyano-5-methylphenyl)-N-(propan-2-yl)prop-2-enamide] reads 111%.

On to `C=CC(=O)NCc1ccc(-n2ccc(C3CC3)n2)cc1` [2-B03, N-{[4-(3-cyclopropyl-1H-pyrazol-1-yl)phenyl]methyl}prop-2-enamide], for which the viability at 48 h, 25 µM amounted to 85.9%. Take `C=CC(=O)N1CCC(C(=O)NCCC2(O)CCCOC2)CC1` (centres unmarked) [2-B04, N-[2-(3-hydroxyoxan-3-yl)ethyl]-1-(prop-2-enoyl)piperidine-4-carboxamide]: the viability at 48 h, 25 µM was 70%. `C=CC(=O)NCC1CCN(C)C1=O` (centres unmarked) [2-B05, N-[(1-methyl-2-oxopyrrolidin-3-yl)methyl]prop-2-enamide]: the viability at 48 h, 25 µM was 71.1%.
